We go through two compounds from article PMC6289163 (Tuberculosis (Edinburgh, Scotland), 2018).

Each structure is given as a SMILES string.

This test deals with clinical MDR isolate (TB4001). In kind it is cell-based, Mycobacterium tuberculosis.

Consider `NNC(=O)c1ccncc1` [Isoniazid], for which the “resistance of TB4001” value was “resistant”.

With `CO[C@H]1/C=C/O[C@@]2(C)Oc3c(C)c(O)c4c(O)c(c(/C=N/N5CCN(C)CC5)c(O)c4c3C2=O)NC(=O)/C(C)=C\C=C\[C@H](C)[C@H](O)[C@@H](C)[C@@H](O)[C@@H](C)[C@H](OC(C)=O)[C@@H]1C` [Rifampicin], the “resistance of TB4001” value was “resistant”.
